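A five-concentration, 48-hour dose response in 96-well plates underlies each endpoint, interpolated linearly between surrounding concentrations. GI50: concentration for 50% inhibition of growth.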 Active and inactive are the calls of the source. Rule as the data show it: active = GI50 up to about 1.1 µM and inactive = higher.
Assays:
Assay in all cases: NCI tumour cell line growth inhibition, 48 h
OVCAR-3 = tested on: OVCAR-3
SK-OV-3 = tested on: SK-OV-3
HOP-62 = tested on: HOP-62
SF-539 = tested on: SF-539
DU-145 = tested on: DU-145
SW-620 = tested on: SW-620
UACC-257 = tested on: UACC-257
CAKI-1 = tested on: CAKI-1
MDA-MB-435 = tested on: MDA-MB-435
SK-MEL-5 = tested on: SK-MEL-5
A549 = tested on: A549
A498 = tested on: A498
SK-MEL-2 = tested on: SK-MEL-2
COLO 205 = tested on: COLO 205
OVCAR-8 = tested on: OVCAR-8
SNB-19 = tested on: SNB-19
HOP-92 = tested on: HOP-92
SF-295 = tested on: SF-295
UACC-62 = tested on: UACC-62
SNB-75 = tested on: SNB-75
BT-549 = tested on: BT-549
ACHN = tested on: ACHN
NCI-H522 = tested on: NCI-H522
OVCAR-4 = tested on: OVCAR-4
KM12 = tested on: KM12
U-251 = tested on: U-251
LOX IMVI = tested on: LOX IMVI
SR = tested on: SR
UO-31 = tested on: UO-31
CCRF-CEM = tested on: CCRF-CEM
HT-29 = tested on: HT-29
RPMI-8226 = tested on: RPMI-8226
HCT-116 = tested on: HCT-116
Hs-578T = tested on: Hs-578T
PC-3 = tested on: PC-3
HCT-15 = tested on: HCT-15
SF-268 = tested on: SF-268
MCF7 = tested on: MCF7
NCI-H460 = tested on: NCI-H460
786-0 = tested on: 786-0
TK-10 = tested on: TK-10
IGROV-1 = tested on: IGROV-1
T47D = tested on: T47D
SK-MEL-28 = tested on: SK-MEL-28
NCI-H226 = tested on: NCI-H226
OVCAR-5 = tested on: OVCAR-5
MOLT-4 = tested on: MOLT-4
MDA-MB-231 = tested on: MDA-MB-231
NCI-H23 = tested on: NCI-H23
HL-60 = tested on: HL-60
MDA-N = tested on: MDA-N
NCI/ADR-RES = tested on: NCI/ADR-RES
EKVX = tested on: EKVX
Malme-3M = tested on: Malme-3M
HCC 2998 = tested on: HCC 2998
M14 = tested on: M14
SN12C = tested on: SN12C
RXF 393 = tested on: RXF 393
K562 = tested on: K562

`C=C1C[C@@H](O)[C@@H](Br)C(C)(C)[C@]12CCC(C)(Br)C(Cl)C2` (some centres undefined) was tested. Which GI50 (OVCAR-3) did it give?
The GI50 was > 50 µM (inactive).

And the GI50 (SK-OV-3)?
Its GI50 is > 50 µM (inactive).

What about the GI50 (HOP-62) of the same compound?
Its GI50 is > 50 µM (inactive).

What about the GI50 (SF-539) of the same compound?
Its GI50 is > 50 µM (inactive).

And the GI50 (DU-145)?
The GI50 was > 50 µM (inactive).

And the GI50 (SW-620)?
Its GI50 is > 50 µM (inactive).

What about the GI50 (UACC-257) of the same compound?
Its GI50 is > 50 µM (inactive).

What about the GI50 (CAKI-1) of the same compound?
The GI50 was > 50 µM (inactive).

What about the GI50 (MDA-MB-435) of the same compound?
The GI50 was > 50 µM (inactive).

What about the GI50 (SK-MEL-5) of the same compound?
The GI50 was > 50 µM (inactive).

What about the GI50 (A549) of the same compound?
The GI50 was > 50 µM (inactive).

What about the GI50 (A498) of the same compound?
Its GI50 is > 50 µM (inactive).

And the GI50 (SK-MEL-2)?
Its GI50 is > 50 µM (inactive).

What about the GI50 (COLO 205) of the same compound?
Its GI50 is 0.791 µM (active).

And the GI50 (OVCAR-8)?
The GI50 was > 50 µM (inactive).

And the GI50 (SNB-19)?
The GI50 was > 50 µM (inactive).

And the GI50 (HOP-92)?
Its GI50 is > 50 µM (inactive).

What about the GI50 (SF-295) of the same compound?
Its GI50 is > 50 µM (inactive).

And the GI50 (UACC-62)?
The GI50 was > 50 µM (inactive).

What about the GI50 (SNB-75) of the same compound?
Its GI50 is > 50 µM (inactive).

And the GI50 (BT-549)?
Its GI50 is > 50 µM (inactive).

And the GI50 (ACHN)?
Its GI50 is > 50 µM (inactive).

And the GI50 (NCI-H522)?
Its GI50 is > 50 µM (inactive).

And the GI50 (OVCAR-4)?
Its GI50 is > 50 µM (inactive).

And the GI50 (KM12)?
Its GI50 is 1.07 µM (active).

And the GI50 (U-251)?
Its GI50 is > 50 µM (inactive).

What about the GI50 (LOX IMVI) of the same compound?
Its GI50 is > 50 µM (inactive).

What about the GI50 (SR) of the same compound?
The GI50 was > 50 µM (inactive).

What about the GI50 (UO-31) of the same compound?
Its GI50 is > 50 µM (inactive).

What about the GI50 (CCRF-CEM) of the same compound?
The GI50 was > 50 µM (inactive).

And the GI50 (HT-29)?
Its GI50 is 6.1 µM (inactive).

What about the GI50 (RPMI-8226) of the same compound?
Its GI50 is 43.9 µM (inactive).

What about the GI50 (HCT-116) of the same compound?
The GI50 was > 50 µM (inactive).

What about the GI50 (Hs-578T) of the same compound?
Its GI50 is > 50 µM (inactive).

What about the GI50 (PC-3) of the same compound?
The GI50 was 0.8 µM (active).

And the GI50 (HCT-15)?
The GI50 was over 50 µM.

And the GI50 (SF-268)?
Its GI50 is > 50 µM (inactive).

And the GI50 (MCF7)?
The GI50 was > 50 µM (inactive).

What about the GI50 (NCI-H460) of the same compound?
The GI50 was > 50 µM (inactive).

And the GI50 (786-0)?
Its GI50 is > 50 µM (inactive).

And the GI50 (TK-10)?
Its GI50 is > 50 µM (inactive).

What about the GI50 (IGROV-1) of the same compound?
Its GI50 is > 50 µM (inactive).

And the GI50 (T47D)?
The GI50 was > 50 µM (inactive).

And the GI50 (SK-MEL-28)?
The GI50 was > 50 µM (inactive).

What about the GI50 (NCI-H226) of the same compound?
Its GI50 is 41.3 µM (inactive).

What about the GI50 (OVCAR-5) of the same compound?
The GI50 was 1.7 µM (inactive).

And the GI50 (MOLT-4)?
Its GI50 is > 50 µM (inactive).

And the GI50 (MDA-MB-231)?
The GI50 was > 50 µM (inactive).

And the GI50 (NCI-H23)?
The GI50 was > 50 µM (inactive).

What about the GI50 (HL-60) of the same compound?
Its GI50 is 1.03 µM (active).

And the GI50 (MDA-N)?
The GI50 was > 50 µM (inactive).

What about the GI50 (NCI/ADR-RES) of the same compound?
The GI50 was > 50 µM (inactive).

What about the GI50 (EKVX) of the same compound?
Its GI50 is 25.4 µM (inactive).

And the GI50 (Malme-3M)?
The GI50 was > 50 µM (inactive).

And the GI50 (HCC 2998)?
The GI50 was > 50 µM (inactive).

What about the GI50 (M14) of the same compound?
The GI50 was > 50 µM (inactive).

What about the GI50 (SN12C) of the same compound?
The GI50 was > 50 µM (inactive).

And the GI50 (RXF 393)?
Its GI50 is > 50 µM (inactive).

What about the GI50 (K562) of the same compound?
The GI50 was > 50 µM (inactive).
